Assay results from patent US4123518A, “Insecticidal phosphate ester-based solid composition with depot gas action” (priority 1974, dated 1978).

Experiments:
[1] = Acute oral toxicity, male rats; conditions: rat, in vivo
[2] = system: male rats; assay: Acute inhalation toxicity, male rats (4 hours' exposure); type: in vivo
[3] = system: flies of the species Musca domestica; assay: Percentage of flies lying on their backs after one hour, shaped pieces in a 40 m^3 room (Example 9); type: in vivo; conditions: shaped piece of Example 5 (Thio-DDVP) or 5a (DDVP)
Method: One shaped piece produced according to Example 5 and one shaped piece produced according to Example 5a were each pushed into a net-like quiver and suspended from the ceiling in the center of identical rooms of 40 m^3 cubic capacity. Immediately thereafter (0), and after 4, 8 and 12 weeks, 200 flies of the species Musca domestica were in each case exposed in the rooms. […] In each case, the percentage of animals which had fallen on their backs was determined 1 hour after exposing the flies.

[4] = system: Musca domestica; assay: Aerosol test (knock-down of 50% of the animals, LT50); type: in vivo; conditions: comparison experiment, Example 1
Method: The following examples explain the invention in more detail, with "parts" denoting parts by weight.
Test animals: Musca domestica
To produce a suitable preparation of active compound, the active compound was mixed, at a range of concentrations, with the stated solvent.
A wire cage which contained about 25 test animals was suspended in the centre of a gas-tight glass chamber of size 1 m^3. After the chamber had been closed again, 2 ml of the preparation of active compound were atomised in the chamber. The condition of the test animals was constantly checked from outside, through the glass walls, and the time required for a knock-down effect on 50% of the animals was determined.
The active compounds, amounts used and time after which 50% of the animals were lying on their backs (LT50) can be seen from the table which follows: […]

[5] = system: warm-blooded animals; assay: Toxicity to warm-blooded animals compared to DDVP; type: in vivo
[6] = age of the shaped pieces 0 weeks
[7] = age of the shaped pieces 4 weeks
[8] = age of the shaped pieces 8 weeks
[9] = age of the shaped pieces 12 weeks

Structure (SMILES) | LD50 [1] [mg/kg] | LC50 male rats, acute inhalation toxicity [2] [mg/m^3] | percentage of animals lying on their backs after one hour [3, 6] [percentage] | percentage of animals lying on their backs after one hour [3, 7] [percentage] | percentage of animals lying on their backs after one hour [3, 8] [percentage] | percentage of animals lying on their backs after one hour [3, 9] [percentage] | insecticidal action compared to DDVP [4] | tolerance of the maximum possible concentration, acute inhalation toxicity ([2]; 477 mg/m^3, maximum possible in the experiment) | toxicity to warm-blooded animals compared to DDVP [5]
COP(=O)(OC)OC=C(Cl)Cl [DDVP, dimethyl-2,2-dichlorovinyl phosphate, reference compound] | 62 | 340 | 80 | 70 | 60 | 20 |  |  | 
COP(=S)(OC)OC=C(Cl)Cl [Thio-DDVP, dimethyl-2,2-dichlorovinyl thiophosphate] | 773 | > 477 | 100 | 95 | 90 | 50 | poorer insecticidal action | tolerated without symptoms | lower toxicity to warm-blooded animals
